# Results taken from patent publication US6339088B1, “Composition for treatment of external secretion disorders except hypol acrimation” (R-Tech Ueno. Ltd., priority 1999, dated 2002).
# Legend:
# [1] = tested on: diabetic patient; assay: Saliva secretion in a diabetic patient after instillation of 0.3% eye drops; type: in vivo, human; details: 0.3% eye drops instilled four times a day, sixth day after start of administration
# Text: [3-(4-Bromo-2-fluorobenzyl)-7-chloro-2,4-dioxo-1,2,3,4-tetrahydroquinazolin-1-yl]acetate, a compound represented by the general formula (II) having aldose reductase-inhibiting effect as an active ingredient was used for preparation of a 0.3% eye drops.
# The 0.3% eye drops was instilled to a diabetic patient four times a day.
# [2] = tested on: Male Sprague-Dawley rats; assay: Effect on saliva secretion in rats (filter-paper infiltration distance); type: in vivo, rat; details: 50 μL of 0.3% solution intraorally three times a day on Day 1 and 2, measured Day 3 one hour after administration
# Experimental: [3-(4-Bromo-2-fluorobenzyl)-7-chloro-2,4-dioxo-1,2,3,4-tetrahydroquinazolin-1-yl]acetate, a compound represented by the general formula (II) having aldose reductase-inhibiting effect as an active ingredient was used for preparation of a 0.3% solution.
# Male Sprague-Dawley rats (aged 7 weeks) were used. The rats were intraorally administered with 50 μL of the 0.3% solution or distilled water three times a day (10:00, 14:00, 18:00) on Day 1 and Day 2. On Day 3, the time upon lapse of one hour after the administration at 10:00 and 14:00, a strip of filter-paper (Schirmer Tear Production Measuring Strips: SHOWA YAKUHIN KAKO CO., LTD.) with the length of 37 mm and width of 5 mm was inserted between the lower teeth gums and the lower jaw of the rat to absorb the saliva into the filter-paper. The infiltration distance of the saliva into the filter-paper was measured every 1 minute for 5 minutes.
smiles,measurement,setting,value
"O=C(O)Cn1c(=O)n(Cc2ccc(Br)cc2F)c(=O)c2ccc(Cl)cc21 [formula (II), [3-(4-bromo-2-fluorobenzyl)-7-chloro-2,4-dioxo-1,2,3,4-tetrahydroquinazolin-1-yl]acetate]",saliva secretion,[1],obvious sthenia of saliva secretion
same,"The infiltration distance of the saliva into filter-paper, mm, mean ± S.E., after 1 min.",[2]; after 1 min.,8.1 ± 1.5 mm
same,"The infiltration distance of the saliva into filter-paper, mm, mean ± S.E., after 2 min.",[2]; after 2 min.,10.6 ± 1.8 mm
same,"The infiltration distance of the saliva into filter-paper, mm, mean ± S.E., after 3 min.","[2]; after 3 min., * P<0.05 vs control",12.6 ± 2.0* mm
same,"The infiltration distance of the saliva into filter-paper, mm, mean ± S.E., after 4 min.","[2]; after 4 min., * P<0.05 vs control",13.6 ± 2.1* mm
same,"The infiltration distance of the saliva into filter-paper, mm, mean ± S.E., after 5 min.",[2]; after 5 min.,14.5 ± 2.3 mm
